# Laboratory results as given in patent publication US9445601B2, “Fungicide active substance combinations” (Bayer Intellectual Property GmbH, priority 1997, dated 2016).
# Read-outs that look alike come from different tables or passages of the source.
# Key:
# Type in all cases: in vivo
# Sphaerotheca fuliginea = assay: Sphaerotheca test (cucumber)/protective; conditions: for pest or weed control at 2.5 g/ha: application rate 2.5 g/ha
# Description: Sphaerotheca Test (Cucumber)/Protective
# (§1) • Solvent: 47 parts by weight of acetone • Emulsifier: 3 parts by weight of alkylaryl polyglycol ether
# After the spray coating has dried on, the plants are inoculated with an aqueous spore suspension of Sphaerotheca fuliginea. The plants are then placed in a greenhouse at about 23° C. and a relative atmospheric humidity of about 70%.
# Evaluation is carried out 10 days after the inoculation.
# Venturia inaequalis = assay: Venturia test (apple)/protective; conditions: protective, single active compound, application rate 1 g/ha, evaluation 12 days after inoculation
# Description: Venturia Test (Apple)/Protective
# as §1
# (§2) To produce a suitable preparation of active compound, 1 part by weight of active compound or active compound combination is mixed with the stated amounts of solvent and emulsifier, and the concentrate is diluted with water to the desired concentration, or a commercial formulation of active compound or active compound combination is diluted with water to the desired concentration.
# To test for protective activity, young plants are sprayed with the active compound preparation at the stated application rate. After the spray coating has dried on, the plants are inoculated with an aqueous konidia suspension of the causative organism of apple scab Venturia inaequalis and then remain in an incubation cabin at about 20° C. and 100% relative atmospheric humidity for one day.
# The plants are then placed in a greenhouse at about 21° C. and a relative atmospheric humidity of about 90%.
# Evaluation is carried out 12 days after the inoculation. 0% means an efficacy which corresponds to that of the control, whereas an efficacy of 100% means that no infection is observed.
# [1] = tested on: Erysiphe graminis f. sp. hordei; assay: Erysiphe test (barley)/curative; conditions: curative, single active compound, application rate 25 g/ha, evaluation 7 days after inoculation
# Description: Erysiphe Test (Barley)/Curative
# (§3) • Solvent: 10 parts by weight of N-methyl-pyrrolidone • Emulsifier: 0.6 parts by weight of alkylaryl polyglycol ether
# as §2
# To test for curative activity, young plants are dusted with spores of Erysiphe graminis f. sp. hordei. 48 hours after the inoculation, the plants are sprayed with the active compound preparation at the stated application rate.
# (§4) The plants are placed in a greenhouse at a temperature of about 20° C. and a relative atmospheric humidity of about 80% to promote the development of mildew pustules.
# (§5) Evaluation is carried out 7 days after the inoculation. 0% means an efficacy which corresponds to that of the control, whereas an efficacy of 100% means that no infection is observed.
# [2] = tested on: Erysiphe graminis f. sp. hordei; assay: Erysiphe test (barley)/protective; conditions: protective per Example 4 (table title prints curative), single active compound, application rate 25 g/ha, 7 days after inoculation
# Description: Erysiphe Test (Barley)/Protective
# as §3, §2
# (§6) To test for protective activity, young plants are sprayed with the active compound preparation at the stated application rate.
# After the spray coating has dried on, the plants are dusted with spores of Erysiphe graminis f. sp. hordei.
# as §4, §5
# [3] = tested on: Erysiphe graminis f. sp. tritici; assay: Erysiphe test (wheat)/curative; conditions: curative, single active compound, 7 days after inoculation
# Description: Erysiphe Test (Wheat)/Curative
# as §3, §2
# To test for curative activity, young plants are dusted with spores of Erysiphe graminis f. sp. tritici. 48 hours after the inoculation, the plants are sprayed with the active compound preparation at the stated application rate.
# (§7) The plants are then placed in a greenhouse at a temperature of about 20° C. and a relative atmospheric humidity of about 80% to promote the development of mildew pustules.
# as §5
# [4] = tested on: Erysiphe graminis f. sp. tritici; assay: Erysiphe test (wheat)/protective; conditions: protective, single active compound, application rate 6.25 g/ha, 7 days after inoculation
# Description: Erysiphe Test (Wheat)/Protective
# as §3, §2, §6
# After the spray coating has dried on, the plants are dusted with spores of Erysiphe graminis f. sp. tritici.
# as §7, §5
# Leptosphaeria nodorum = Leptosphaeria nodorum test (wheat)/protective; conditions: protective, single active compound, application rate 25 g/ha, 10 days after inoculation
# Description: Leptosphaeria nodorum Test (Wheat)/Protective
# as §3, §2, §6
# After the spray coating has dried on, the plants are sprayed with a spore suspension of Leptosphaeria nodorum. The plants remain in an incubation cabin at 20° C. and 100% relative atmospheric humidity for 48 hours.
# The plants are then placed in a greenhouse at a temperature of about 15° C. and a relative atmospheric humidity of about 80%.
# (§8) Evaluation is carried out 10 days after the inoculation. 0% means an efficacy which corresponds to that of the control, whereas an efficacy of 100% means that no infection is observed.
# Puccinia recondita = assay: Puccinia test (wheat)/protective; conditions: protective, single active compound, application rate 25 g/ha, 10 days after inoculation
# Description: Puccinia Test (Wheat)/Protective
# as §3, §2
# To test for protective activity, young plants are inoculated with a spore suspension of Puccinia recondita in a 0.1% strength aqueous agar solution. After the spray coating had dried on, the plants are sprayed with the active compound preparation at the stated application rate.
# The plants remain in an incubation cabin at 20° C. and 100% relative atmospheric humidity for 24 hours.
# The plants are then placed in a greenhouse at a temperature of about 20° C. and a relative atmospheric humidity of about 80% to promote the development of rust pustules.
# as §8
# Fusarium culmorum = Fusarium culmorum test (wheat)/seed treatment; conditions: dry seed dressing, single active compound, application rate 75 g/ha as printed, about 3 weeks after sowing
# Description: Fusarium culmorum Test (Wheat)/Seed Treatment
# (§9) The active compounds are applied as a dry seed dressing. This is prepared by extending the respective active compound or the active compound combination with ground minerals to give a finely pulverulent mixture which ensures uniform distribution on the seed surface.
# (§10) To dress the seed, the infected seed together with the seed dressing is shaken for 3 minutes in a sealed glass flask.
# 2×100 corns of wheat are sown at a depth of 1 cm in standard soil and cultivated in a greenhouse at a temperature of about 18° C. and a relative atmospheric humidity of about 95% in seed trays which receive a light regimen of 15 hours per day.
# (§11) About 3 weeks after sowing, the plants are evaluated for symptoms. 0% means an efficacy which corresponds to that of the control, whereas an efficacy of 100% means that no infection is observed.
# Fusarium nivale = Fusarium nivale test (triticale)/seed treatment; conditions: dry seed dressing, single active compound, about 3 weeks after sowing
# Description: Fusarium nivale Test (Triticale)/Seed Treatment
# as §9, §10
# 2×100 corns of wheat are sown at a depth of 1 cm in standard soil and cultivated in a greenhouse at a temperature of about 10° C. and a relative atmospheric humidity of about 95% in seed trays which receive a light regimen of 15 hours per day.
# as §11
# Rhizoctonia solani = Rhizoctonia solani test (cotton)/seed treatment; conditions: dry seed dressing, single active compound, application rate 25 g/ha, evaluation after 8 days
# Description: Rhizoctonia solani Test (Cotton)/Seed Treatment
# as §9, §10
# 2×50 corns of seed are sown at a depth of 2 cm in standard soil infected with Rhizoctonia solani, and the seeds are cultivated in a greenhouse at a temperature of about 22° C. in seed trays which receive a light regimen of 15 hours per day.
# Evaluation is carried out after 8 days. 0% means an efficacy which corresponds to that of the control, whereas an efficacy of 100% means that no infection is observed.
# [5] = Podosphaera fuliginea, 240 h, cucumber, protective, single active compound, evaluation 10 days after inoculation, read-out: Efficacy in %
# [6] = application rate 75 g/ha as printed
# [7] = Podosphaera fuliginea, 240 h, cucumber, protective, single active compound, application rate 25 g/ha, evaluation 10 days after inoculation, read-out: Efficacy in %
# [8] = Podosphaera fuliginea, 240 h, cucumber, protective, single active compound, application rate 12.5 g/ha, evaluation 10 days after inoculation, read-out: Efficacy in %
molecule,measurement,setting,value
"OC(Cc1ccccc1Cl)(Cn1nc[nH]c1=S)C1(Cl)CC1 (centres unmarked) [(I), 2-[2-(1-chlorocyclopropyl)-3-(2-chlorophenyl)-2-hydroxypropyl]-2,4-dihydro-[1,2,4]-triazole-3-thione]",pest or weed control at 0.5 g/ha,"Sphaerotheca fuliginea; Podosphaera fuliginea, 240 h, cucumber, protective, single active compound, application rate 0.5 g/ha, evaluation 10 days after inoculation, read-out: Efficacy in %",0%
same,pest or weed control at 2.5 g/ha,Sphaerotheca fuliginea; [5],21%
same,Efficacy in %,Venturia inaequalis,1%
same,Efficacy in %,[1],81%
same,Efficacy in %,[2],83%
same,Efficacy in %,[3]; application rate 6.25 g/ha,25%
same,Efficacy in %,[3]; application rate 12.5 g/ha,50%
same,Efficacy in %,[3]; application rate 25 g/ha,75%
same,Efficacy in %,[4],57%
same,Efficacy in %,Leptosphaeria nodorum,62%
same,Efficacy in %,Puccinia recondita,38%
same,Efficacy in %,Fusarium culmorum,32%
same,Efficacy in %,Fusarium nivale; application rate 25 g/ha,0%
same,Efficacy in %,Fusarium nivale; [6],14%
same,Efficacy in %,Rhizoctonia solani,19%
CC(C)(C)C(O)(CCc1ccc(Cl)cc1)Cn1cncn1 (centres unmarked) [(III)],pest or weed control at 2.5 g/ha,Sphaerotheca fuliginea; [5],50%
same,Efficacy in %,[3]; application rate 25 g/ha,88%
same,Efficacy in %,[4],57%
same,Efficacy in %,Rhizoctonia solani,27%
"CC(C)(C)C(=O)C(Oc1ccc(Cl)cc1)n1cncn1 (centres unmarked) [(IIa), 1-(4-chloro-phenoxy)-3,3-dimethyl-1-(1,2,4-triazol-1-yl)-butane-2-one]",pest or weed control at 2.5 g/ha,Sphaerotheca fuliginea; [5],37%
"CC(C)(C)C(O)C(Oc1ccc(Cl)cc1)n1cncn1 (centres unmarked) [(IIb), 1-(4-chloro-phenoxy)-3,3-dimethyl-1-(1,2,4-triazol-1-yl)-butan-2-ol]",pest or weed control at 2.5 g/ha,Sphaerotheca fuliginea; [5],80%
same,Efficacy in %,[3]; application rate 25 g/ha,81%
"CC(C)(C)C(O)C(Oc1ccc(-c2ccccc2)cc1)n1cncn1 (centres unmarked) [(IIc), 1-(4-phenyl-phenoxy)-3,3-dimethyl-1-(1,2,4-triazol-1-yl)-butan-2-ol]",pest or weed control at 2.5 g/ha,Sphaerotheca fuliginea; [5],0%
same,Efficacy in %,Fusarium culmorum,27%
same,Efficacy in %,Rhizoctonia solani,0%
CN(C)S(=O)(=O)N(SC(F)(Cl)Cl)c1ccccc1 [(IVa)],pest or weed control at 25 g/ha,"Sphaerotheca fuliginea; Podosphaera fuliginea, 240 h, read-out: Efficacy in %",0%
Cc1ccc(N(SC(F)(Cl)Cl)S(=O)(=O)N(C)C)cc1 [(IVb)],pest or weed control at 25 g/ha,Sphaerotheca fuliginea; [7],0%
CCCOC(=O)NC(C(=O)NC(C)c1ccc(C)cc1)C(C)C (centres unmarked) [(IX)],pest or weed control at 12.5 g/ha,Sphaerotheca fuliginea; [8],13%
CC1(C(=O)Nc2ccc(O)c(Cl)c2Cl)CCCCC1 [(VIII)],pest or weed control at 12.5 g/ha,Sphaerotheca fuliginea; [8],0%
CSC(=O)c1cccc2nnsc12 [(X)],pest or weed control at 2.5 g/ha,Sphaerotheca fuliginea; [5],0%
"CCCN(CC)CC1COC2(CCC(C(C)(C)C)CC2)O1 (centres unmarked) [(XI), 8-t-butyl-2-(N-ethyl-N-n-propyl-amino)-methyl-1,4-dioxaspiro-[5,4]-decane]",Efficacy in %,"Sphaerotheca fuliginea; cucumber, protective, single active compound, application rate 12.5 g/ha, evaluation 10 days after inoculation",0%
same,Efficacy in %,[3]; application rate 12.5 g/ha,0%
CO/C=C(/C(=O)OC)c1ccccc1Oc1cc(Oc2ccccc2C#N)ncn1 [(XII)],pest or weed control at 2.5 g/ha,Sphaerotheca fuliginea; [5],59%
same,Efficacy in %,[2],92%
CO/N=C(/C(=O)OC)c1ccccc1COc1ccccc1C [(XIII)],pest or weed control at 2.5 g/ha,Sphaerotheca fuliginea; [5],57%
same,Efficacy in %,[3]; application rate 6.25 g/ha,94%
CO/N=C(\C1=NOCCO1)c1ccccc1Oc1ncnc(Oc2ccccc2Cl)c1F [(XIV)],pest or weed control at 2.5 g/ha,Sphaerotheca fuliginea; [5],22%
same,Efficacy in %,[1],75%
same,Efficacy in %,[3]; application rate 12.5 g/ha,0%
same,Efficacy in %,Leptosphaeria nodorum,87%
same,Efficacy in %,Puccinia recondita,94%
same,Efficacy in %,Fusarium nivale; [6],94%
O=C1c2ccccc2C(=O)N1SC(Cl)(Cl)Cl [(XIX)],pest or weed control at 25 g/ha,Sphaerotheca fuliginea; [7],0%
CC12CC1(C)C(=O)N(c1cc(Cl)cc(Cl)c1)C2=O (centres unmarked) [(XV)],pest or weed control at 12.5 g/ha,Sphaerotheca fuliginea; [8],0%
N#Cc1c(Cl)c(Cl)c(Cl)c(C#N)c1Cl [(XVII)],pest or weed control at 25 g/ha,Sphaerotheca fuliginea; [7],0%
COc1ccc(C(=CC(=O)N2CCOCC2)c2ccc(Cl)cc2)cc1OC [(XVIII)],pest or weed control at 12.5 g/ha,Sphaerotheca fuliginea; [8],0%
"Cc1cc(C)nc(Nc2ccccc2)n1 [(XVIa), pyrimethanil]",pest or weed control at 25 g/ha,Sphaerotheca fuliginea; [7],0%
Cc1cc(C2CC2)nc(Nc2ccccc2)n1 [(XVIb)],pest or weed control at 25 g/ha,Sphaerotheca fuliginea; [7],0%
same,Efficacy in %,[3]; application rate 12.5 g/ha,0%
CCC(C)(NC(=O)c1cc(Cl)c(C)c(Cl)c1)C(=O)CCl (centres unmarked) [(XXIV)],pest or weed control at 12.5 g/ha,Sphaerotheca fuliginea; [8],0%
"N#Cc1c[nH]cc1-c1cccc(Cl)c1Cl [(XXIa), 4-(2,3-dichlorophenyl)-pyrrole-3-carbonitrile]",Efficacy in %,Fusarium nivale; application rate 25 g/ha,0%
"N#Cc1c[nH]cc1-c1cccc2c1OC(F)(F)O2 [(XXIb), 4-(2,2-difluoro-1,3-benzodioxol-7-yl)-1H-pyrrole-3-carbonitrile]",Efficacy in %,[3]; application rate 6.25 g/ha,38%
"zinc propylene-1,2-bis-(dithiocarbamate) [(VI)]",Efficacy in %,"Sphaerotheca fuliginea; cucumber, protective, single active compound, application rate 25 g/ha, evaluation 10 days after inoculation",0%
